Laboratory results taken from patent US5437980A, “Phenanthridium dye staining of nucleic acids in living cells” (Molecular Probes, Inc., priority 1993, dated 1995).

Key:
[1] = tested on: epidermal tissue of the bulb, Alium spp.; assay: Staining of plant cell tissue (Example 6); type: cell-based; details: 10 μM dye, 30 min, room temperature
Procedure: A small section of tissue from the bulb is removed with a razor blade. 0.5 mL of a 10 μM solution of the 5-DAPP/LIVE dye in distilled water is dispensed into a small glass dish. The epidermal tissue is cut into sections and placed in the dye solution. The tissue is stained for 30 min at room temperature in the dark then the tissue preparation is mounted in the presence of the dye between a coverglass and the slide.

[2] = tested on: free-living ciliate and flagellate protozoans; assay: Staining of protozoa (Example 7); type: cell-based; details: 1 μL of 10 mM dye in 1 mL culture, 10 min, ambient temperature
Procedure: 1 μL of 10 mM the 5-DAPP/LIVE dye stock is added to 1 mL of protozoan culture. The medium is incubated for 10 min at ambient temperature. 15 μL of this preparation is mounted with dye between a coverglass and the slide. Using this procedure, the nuclei of most cells of the free-living ciliate and flagellate protozoans are stained under these conditions.

tissue culture cells = assay: Entry into / staining pattern of tissue culture cells; type: cell-based
Text: In some tissue culture cells, the pattern of staining is different from that observed in plant cells or bacteria. In the former case, cells are usually loaded with a brief pulse of dye, followed by a chase of buffered saline solution. These cells show a pattern of staining first in numerous intracellular compartments; e.g. lysosomes. In addition to staining these organelles first, the dyes also undergo a spectral shift to shorter wavelengths when associated with this "early-labeled compartment." If the same cells are exposed to pulses of higher concentrations of the 5-DAPP/LIVE dyes, the staining appears in the mitochondria (tubular structures that are labeled with rhodamine 123) and then, finally, in the nucleus, where it stains the nucleoli very brightly. Nucleoli are the most prominently stained area of higher eukaryotic cells, while the nuclei and cytosol usually stain in a hazy or punctate pattern in these cells. […] In plant tissues distinct nuclei tend to label uniformly, but there is frequently significant binding of the dye to cell walls. The plant cells are usually dark except for cell walls and nuclei. The characteristic binding morphology obtained using the 5-DAPP/LIVE dyes thus makes them useful in certain circumstances for identifying the type of cell in a mixed population of cells.

gram-positive bacteria = details: mild conditions; application Ser. No. 08/047,683; cited from earlier work
gram-negative bacteria = details: mild conditions; application Ser. No. 08/047,683; cited from earlier work

CCCCCC[n+]1c(-c2ccccc2)c2cc(N)ccc2c2ccc(N)cc21 [hexidium]
cell wall / surface staining [1]: more hazy surface staining occurs with ethidium and butidium than with hexidium or octidium | staining of nuclei of protozoans [2]: slightly better than octidium | staining of cells loaded to equilibrium / staining pattern (tissue culture cells): both intense cytoplasmic and nuclear staining | staining of live gram-positive bacteria (gram-positive bacteria): significantly greater | staining of live gram-negative bacteria (gram-negative bacteria): lightly stain some gram negative organisms
